From patent US20160051514A1, “METHODS FOR TREATMENT OF CARDIOMYOPATHY” (THE BRIGHAM AND WOMEN'S HOSPITAL, INC., priority 2013, published 2016)
“Also recorded” adds a separate entry of the source.

Legend:
[1] = test system: neonatal rat ventricular myocytes expressing 2057del2 plakoglobin; experiment: Western immunoblotting of total cellular protein content; format: cell-based
Experimental: (§1) Western Immunoblotting: Cells were washed in PBS and scraped from culture dishes in a low ionic strength buffer containing protease inhibitors (1 mM NaHCO3, 5 mM EDTA, 1 mM EGTA, 1 μM leupeptin, 1 μM pepstatin, 0.1 μM aprotinin, 1 mM benzamidine, 1 mM iodoacetamide, 1 mM phenylmethylsulfortylfluoride). Following centrifugation, the pellet was resuspended in the same buffer and aliquots containing 10 μg of total protein were analyzed by SDS polyacrylamide gel electrophoresis. Proteins were detected by enhanced chemiluminescence (ECL. Amersham Corp). All blots were stripped in 62.5 mM Tris-HCl, pH 6.8, 100 mM β-mercapto-ethanol, and re-probed with a mouse monoclonal anti-GAPDH antibody (Fitzgerald) as a loading control.
as §1, with “phenylmethylsulfonylfluoride).” for “phenylmethylsulfortylfluoride).”, “(ECL,” for “(ECL.”

[2] = test system: neonatal rat ventricular myocytes expressing 2057del2 plakoglobin; experiment: Immunofluorescence of intercalated disk proteins in neonatal rat ventricular myocytes; format: cell-based
Experimental: Neonatal rat ventricular myocyte isolation and culture, stretch protocols: Primary cardiac myocyte cultures were prepared from ventricles of 1-day-old Wistar rat pups (Charles River) as previously described.^9 Cells were plated on collagen-coated plastic chamber slides at a density of […] cells/cm^2 and grown for 4 days prior to experimentation. In selected experiments, monolayers grown on collagen--coated silicone membranes were subjected to linear pulsatile stretch using a custom-designed apparatus as described in previous studies.'° Cells were stretched to 110% of resting length at a. frequency of 3 Hz for 1-4 hr in serum-free medium. In other experiments cultures were incubated with reagents including pifitlirin A (5 μM, 1 hr) and SB216763 (5 μM, 24 hr) prior to experimentation. All protocols were approved by the Institutional Animal Care and Use Committee (IACUC).
Viral transfection: A recombinant adenoviral construct expressing 2057del2-plakoglobin was created with the ViraPower Adenoviral Expression system (Invitrogen) using the pAd/CMV/V5-DEST vector through LR clonase-mediated recombination. The V5-tag was used to identify the mutant protein and distinguish it from wildtype plakoglobin. Two days post-plating, monolayers were exposed to viral solution (1:130 dilution in serum-free media, 37° C.) for 1 hr after which viral solution was replaced with complete medium in the presence or absence of reagents.
Immunofluoresence staining and microscopy in cultured cells: Cultures were rinsed in serum-free medium and fixed in 4% paraformaldehyde at room temperature for 5 min or in acetone at −20° C. for 10 min. Fixed cells were immunostained with mouse monoclonal anti-plakoglobin (Sigma), anti-N-cadhcrin (Sigma), anti-Cx43 (Millipore), anti-desmopla.kin (Fitzgerald), anti-SAP97 (Santa Cruz Biotechnology) antibodies and anti-Nav1.5 (kindly provided by Dr. Hugues Abriel, University of Bern, Switzerland) antibodies. Specific immunoreactive signal was detected by laser scanning confocal microscopy as previously described.”
Neonatal rat ventricular myocyte isolation, culture, stretch protocols: Primary cardiac myocyte cultures were prepared from ventricles of 1-day-old Wistar rat pups (Charles River) as previously described (36). Cells were plated on collagen-coated plastic chamber slides at a density of 2.4×10^5 cells/cm2 and grown for 4 days prior to experimentation. In selected experiments, monolayers grown on collagen-coated silicone membranes were subjected to linear pulsatile stretch using a custom-designed apparatus as described in previous studies (35). Cells were stretched to 110% of resting length at a frequency of 3 Hz for 1-4 hr in serum-free medium. In other experiments cultures were incubated with reagents including pifithrin A (5 μM, 1 hr) and SB216763 (0.1-10 μM for 12 or 24 hr) prior to experimentation. Vehicle controls (DMSO) were included in all experiments.
Viral transfection: A recombinant adenoviral construct expressing 2057del2 plakoglobin was created with the ViraPower Adenoviral Expression™ system (Invitrogen) using the pAd/CMV/V5-DEST vector through LR clonase-mediated recombination. The V5-tag was used to identify the mutant protein and distinguish it from wildtype plakoglobin. Two days post-plating, monolayers were exposed to viral solution (1:130 dilution in serum-free media, 37° C.) for 1 hr after which viral solution was replaced with complete medium in the presence or absence of reagents. Immunofluorescence staining and microscopy in cultured cells: Cultures were rinsed in serum-free medium and fixed in 4% paraformaldehyde at 25° C. for 5 min or in acetone at −20° C. for 10 min. Fixed cells were immunostained with mouse monoclonal anti-plakoglobin (Sigma), anti-N-cadherin (Sigma), anti-Cx43 (Millipore), anti-desmoplakin (Fitzgerald), anti-SAP97 (Santa Cruz Biotechnology) antibodies and anti-Nav1.5 antibodies (rabbit polyclonal).

[3] = cells expressing 2057del2 plakoglobin, 5 μM, 24 hr
[4] = cells expressing 2057del2 plakoglobin, 5 μM, 24 hr, listed as SAB216763
[5] = cells expressing 2057del2 plakoglobin, exposure for 24 hr

Cn1cc(C2=C(c3ccc(Cl)cc3Cl)C(=O)NC2=O)c2ccccc21 [SB216763]
Total cellular content of Nav1.5 [1]: nor did exposure to SB216763 affect overall levels of Nav1.5; also recorded: without an apparent change in total cellular content of SAP97 and Nav1.5
Total cellular content of SAP97 [1]: without apparent changes in the total amount of SAP97; also recorded: without an apparent change in total cellular content of SAP97 and Nav1.5
Total cellular content of plakoglobin [1]: no apparent change in the total cellular content of plakoglobin; also recorded: had no apparent effect on plakoglobin expression levels
Total cellular content / expression of Cx43 ([1]; control and transfected myocytes, listed as SB2): Increased Cx43 expression was observed
Disease features (plakoglobin redistribution, gap junction remodeling, cytokine expression, myocyte apoptosis), summary statements [2]: normalized; also recorded: reversed or prevented
Gap junction remodeling / junctional Cx43 signal [2, 3]: increased junctional signal for Cx43; also recorded: prevented the adverse remodeling of gap junctions
Subcellular distribution of plakoglobin immunoreactive signal (junctional vs intracellular/nuclear) [2, 3]: prevented the marked change in subcellular distribution of plakoglobin and accumulation of nuclear signal
Gap junction remodeling / junctional Cx43 signal [2, 4]: blocked
Subcellular distribution of plakoglobin immunoreactive signal (junctional vs intracellular/nuclear) [2, 4]: prevented redistribution of plakoglobin from junctional to intracellular pools
Nav1.5 immunoreactive signal [2, 5]: signal levels were restored; also recorded: reversed
SAP97 immunoreactive signal at the cell surface / cell-cell junctions [2, 5]: a more normal distribution was restored; also recorded: fully reversed
Cx43 signal at cell-cell junctions in control (non-transfected) cultures ([2]; control cultures, 5 μM, 24 hr): increased the amount of Cx43 signal at cell-cell junctions; also recorded: also increased junctional signal for Cx43
Concentration of maximal effect in restoring normal cellular distribution of plakoglobin and Cx43 signals ([2]; dose-response 0.1-10 μM for 12 or 24 hours, maximal at 24 hr): 5 µM
